Laboratory results reported in ChEMBL document CHEMBL1201862, “PubChem BioAssay data set” (2004).
Activity calls are given as the source filed them.

Legend:
SUMO E1/E2 = SUMO E1/E2 (Homo sapiens, UniProt P63279+Q9UBE0+Q9UBT2); test: SAR analysis of SUMOylation using HTRF in an in-Vitro dose response assay. [Related pubchem assays (depositor defined):AID2006, AID2011, AID2018, AID2069, AID2658]; assay type: functional
[1] = molecular target: T1, Alkaline phosphatase, tissue-nonspecific isozyme (Homo sapiens, UniProt P05186); test: activation of tissue-nonspecific alkaline phosphatase – biochemical, TNAP isozyme, mouse IAP uHTS hits, selectivity assay for mouse IAP activator project, dose response (AID 488880); assay type: functional
T1 sequence (P05186 whole entry): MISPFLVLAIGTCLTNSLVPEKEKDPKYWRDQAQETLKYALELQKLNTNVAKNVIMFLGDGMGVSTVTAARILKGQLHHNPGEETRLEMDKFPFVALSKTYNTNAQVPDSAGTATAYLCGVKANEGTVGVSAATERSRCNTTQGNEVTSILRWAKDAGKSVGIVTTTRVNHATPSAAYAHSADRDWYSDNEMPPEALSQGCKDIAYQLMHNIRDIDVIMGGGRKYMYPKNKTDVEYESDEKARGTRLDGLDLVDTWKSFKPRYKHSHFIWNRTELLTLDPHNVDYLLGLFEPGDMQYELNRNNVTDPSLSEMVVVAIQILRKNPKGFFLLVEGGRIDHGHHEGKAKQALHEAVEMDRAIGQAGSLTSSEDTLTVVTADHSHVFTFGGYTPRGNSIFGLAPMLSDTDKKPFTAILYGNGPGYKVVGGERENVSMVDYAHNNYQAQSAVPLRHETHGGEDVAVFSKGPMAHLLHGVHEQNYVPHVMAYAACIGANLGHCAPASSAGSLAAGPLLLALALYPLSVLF

[2] = molecular target: Induced myeloid leukemia cell differentiation protein Mcl-1 (Homo sapiens, UniProt Q07820); test: blockers of MCL1 binding to BIM peptide – biochemical, fluorescence polarization, BIM-BH3 peptide, 1536-well, dose response (AID 2217)
Bcl-2-like protein 1 = Bcl-2-like protein 1 (Homo sapiens, UniProt Q07817); test: blockers of BCLXL peptide binding – biochemical, fluorescence polarization, 1536-well, selectivity assay for MCL1 inhibitor project, dose response (AID 2218)
[3] = molecular target: Intestinal-type alkaline phosphatase (Homo sapiens, UniProt P09923); test: activation of human intestinal alkaline phosphatase – biochemical, dose response (AID 488873); assay type: functional
[4] = molecular target: Glucose-6-phosphate 1-dehydrogenase (Homo sapiens, UniProt P11413); test: inhibition of Homo sapiens G6PD, dose series – biochemical, fluorescence, selectivity assay for P. falciparum G6PD inhibitor project, dose response (AID 504792); assay type: functional
Vero = test: cells; assay type: functional; details: Chlorocebus sabaeus
[5] = molecular target: Heat shock protein HSP 90-alpha (Homo sapiens, UniProt P07900); assay type: functional, organism-based
Large T antigen = Large T antigen (Simian virus 40, UniProt P03070); assay type: functional, Betapolyomavirus macacae;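 further: Confirmatory-stage PubChem screen for compounds that inhibit SV40 T antigen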
[6] = molecular target: Intestinal-type alkaline phosphatase (Mus musculus, UniProt P24822); test: mouse intestinal alkaline phosphatase activators, dose response, biochemical, luminescence, uHTS hits (AID 488783); assay type: functional
[7] = molecular target: T2, Tyrosine-protein phosphatase non-receptor type 22 (Homo sapiens, UniProt Q9Y2R2); assay type: functional
T2 sequence (Q9Y2R2 whole entry): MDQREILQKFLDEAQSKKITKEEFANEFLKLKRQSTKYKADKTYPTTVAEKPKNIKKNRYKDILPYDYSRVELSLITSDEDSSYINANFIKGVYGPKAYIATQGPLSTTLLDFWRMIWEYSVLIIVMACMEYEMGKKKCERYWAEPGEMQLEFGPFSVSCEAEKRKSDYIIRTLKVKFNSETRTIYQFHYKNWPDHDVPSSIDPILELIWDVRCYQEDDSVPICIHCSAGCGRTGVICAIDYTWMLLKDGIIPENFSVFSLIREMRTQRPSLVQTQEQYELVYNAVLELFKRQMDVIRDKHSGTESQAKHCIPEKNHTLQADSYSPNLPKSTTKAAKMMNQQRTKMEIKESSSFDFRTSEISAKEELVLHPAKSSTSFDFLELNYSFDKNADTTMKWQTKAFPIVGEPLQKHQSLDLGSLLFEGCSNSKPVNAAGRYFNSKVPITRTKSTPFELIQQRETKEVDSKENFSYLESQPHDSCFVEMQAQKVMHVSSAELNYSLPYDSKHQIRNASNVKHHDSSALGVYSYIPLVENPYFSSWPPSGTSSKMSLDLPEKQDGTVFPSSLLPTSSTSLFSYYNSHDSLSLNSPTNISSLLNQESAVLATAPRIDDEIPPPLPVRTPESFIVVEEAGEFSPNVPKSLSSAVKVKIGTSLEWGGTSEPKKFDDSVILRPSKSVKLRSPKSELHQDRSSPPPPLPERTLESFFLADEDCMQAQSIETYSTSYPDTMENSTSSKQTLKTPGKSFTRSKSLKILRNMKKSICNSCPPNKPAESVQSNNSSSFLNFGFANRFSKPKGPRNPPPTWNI

[8] = molecular target: T2, Tyrosine-protein phosphatase non-receptor type 22; assay type: functional; remark: listed apart in the source
[9] = molecular target: T3, Tyrosine-protein phosphatase non-receptor type 7 (Homo sapiens, UniProt P35236); assay type: functional
T3 sequence (P35236 whole entry): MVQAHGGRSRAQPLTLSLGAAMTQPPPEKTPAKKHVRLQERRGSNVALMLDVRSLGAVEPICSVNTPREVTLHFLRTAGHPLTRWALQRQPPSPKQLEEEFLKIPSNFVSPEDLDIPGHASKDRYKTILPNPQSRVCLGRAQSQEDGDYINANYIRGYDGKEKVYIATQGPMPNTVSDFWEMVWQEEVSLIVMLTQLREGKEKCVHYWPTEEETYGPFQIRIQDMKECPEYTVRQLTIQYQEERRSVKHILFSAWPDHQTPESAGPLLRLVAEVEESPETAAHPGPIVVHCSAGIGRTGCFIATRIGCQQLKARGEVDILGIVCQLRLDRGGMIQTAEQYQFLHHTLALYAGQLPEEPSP

Intestinal-type alkaline phosphatase (Mus musculus, UniProt P24822), sequence (P24822 whole entry): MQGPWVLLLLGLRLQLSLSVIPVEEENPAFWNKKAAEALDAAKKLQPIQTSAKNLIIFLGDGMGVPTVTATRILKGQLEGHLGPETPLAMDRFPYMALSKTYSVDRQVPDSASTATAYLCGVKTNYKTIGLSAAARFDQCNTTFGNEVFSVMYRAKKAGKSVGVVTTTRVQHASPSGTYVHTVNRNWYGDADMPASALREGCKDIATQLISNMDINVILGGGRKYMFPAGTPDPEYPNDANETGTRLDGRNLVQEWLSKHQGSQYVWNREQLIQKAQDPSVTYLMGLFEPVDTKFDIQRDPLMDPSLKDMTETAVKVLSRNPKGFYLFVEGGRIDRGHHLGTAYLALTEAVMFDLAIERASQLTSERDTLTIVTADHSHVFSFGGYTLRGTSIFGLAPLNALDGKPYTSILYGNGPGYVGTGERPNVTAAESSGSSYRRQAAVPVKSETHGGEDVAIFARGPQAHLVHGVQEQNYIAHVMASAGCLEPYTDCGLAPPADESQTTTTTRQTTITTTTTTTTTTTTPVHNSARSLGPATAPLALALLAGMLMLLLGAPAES
Bcl-2-like protein 1, sequence (Q07817 whole entry): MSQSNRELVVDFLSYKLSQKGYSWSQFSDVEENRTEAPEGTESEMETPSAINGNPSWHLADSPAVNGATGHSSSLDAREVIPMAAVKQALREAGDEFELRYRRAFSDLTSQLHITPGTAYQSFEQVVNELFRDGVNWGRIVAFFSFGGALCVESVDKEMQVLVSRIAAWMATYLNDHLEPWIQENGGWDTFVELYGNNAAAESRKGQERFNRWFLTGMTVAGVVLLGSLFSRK
Large T antigen, sequence (P03070 whole entry): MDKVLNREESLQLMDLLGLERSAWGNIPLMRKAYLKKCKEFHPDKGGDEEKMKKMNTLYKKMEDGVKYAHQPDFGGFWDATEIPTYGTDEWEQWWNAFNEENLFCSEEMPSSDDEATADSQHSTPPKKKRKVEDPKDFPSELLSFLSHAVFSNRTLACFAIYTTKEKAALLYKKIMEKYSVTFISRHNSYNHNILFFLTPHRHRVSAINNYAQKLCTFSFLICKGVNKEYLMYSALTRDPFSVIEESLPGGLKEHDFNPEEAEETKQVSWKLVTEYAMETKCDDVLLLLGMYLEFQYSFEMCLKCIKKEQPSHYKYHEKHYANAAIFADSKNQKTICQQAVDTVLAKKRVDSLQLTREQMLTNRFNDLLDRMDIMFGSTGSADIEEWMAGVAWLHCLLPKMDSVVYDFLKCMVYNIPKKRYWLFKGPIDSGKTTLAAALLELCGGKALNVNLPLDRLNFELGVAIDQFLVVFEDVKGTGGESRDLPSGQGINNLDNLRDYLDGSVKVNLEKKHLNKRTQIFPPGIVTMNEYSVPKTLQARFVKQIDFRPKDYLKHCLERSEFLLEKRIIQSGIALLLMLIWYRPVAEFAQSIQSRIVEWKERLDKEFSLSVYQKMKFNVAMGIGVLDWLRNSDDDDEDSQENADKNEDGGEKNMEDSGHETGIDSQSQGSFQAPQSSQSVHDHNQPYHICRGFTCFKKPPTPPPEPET
Induced myeloid leukemia cell differentiation protein Mcl-1, sequence (Q07820 whole entry): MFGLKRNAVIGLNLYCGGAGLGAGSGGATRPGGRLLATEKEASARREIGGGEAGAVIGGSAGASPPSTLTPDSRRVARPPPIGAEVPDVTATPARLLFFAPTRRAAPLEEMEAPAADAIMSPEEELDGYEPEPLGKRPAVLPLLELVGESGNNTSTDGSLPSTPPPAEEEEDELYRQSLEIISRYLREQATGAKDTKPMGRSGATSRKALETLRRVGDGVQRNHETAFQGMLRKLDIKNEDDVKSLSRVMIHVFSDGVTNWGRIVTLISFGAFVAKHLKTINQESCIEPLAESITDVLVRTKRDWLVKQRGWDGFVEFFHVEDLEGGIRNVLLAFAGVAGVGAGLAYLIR
SUMO E1/E2, sequence (Q9UBE0 whole entry): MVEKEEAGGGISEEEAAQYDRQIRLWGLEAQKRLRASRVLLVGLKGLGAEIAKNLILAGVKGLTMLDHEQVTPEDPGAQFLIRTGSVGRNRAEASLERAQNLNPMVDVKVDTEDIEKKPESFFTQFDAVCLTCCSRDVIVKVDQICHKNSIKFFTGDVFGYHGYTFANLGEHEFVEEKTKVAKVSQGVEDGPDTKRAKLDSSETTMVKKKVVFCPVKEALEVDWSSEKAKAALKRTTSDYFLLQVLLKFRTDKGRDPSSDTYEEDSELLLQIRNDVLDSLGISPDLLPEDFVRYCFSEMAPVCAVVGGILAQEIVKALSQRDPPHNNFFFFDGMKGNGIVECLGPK
SUMO E1/E2, sequence (Q9UBT2 whole entry): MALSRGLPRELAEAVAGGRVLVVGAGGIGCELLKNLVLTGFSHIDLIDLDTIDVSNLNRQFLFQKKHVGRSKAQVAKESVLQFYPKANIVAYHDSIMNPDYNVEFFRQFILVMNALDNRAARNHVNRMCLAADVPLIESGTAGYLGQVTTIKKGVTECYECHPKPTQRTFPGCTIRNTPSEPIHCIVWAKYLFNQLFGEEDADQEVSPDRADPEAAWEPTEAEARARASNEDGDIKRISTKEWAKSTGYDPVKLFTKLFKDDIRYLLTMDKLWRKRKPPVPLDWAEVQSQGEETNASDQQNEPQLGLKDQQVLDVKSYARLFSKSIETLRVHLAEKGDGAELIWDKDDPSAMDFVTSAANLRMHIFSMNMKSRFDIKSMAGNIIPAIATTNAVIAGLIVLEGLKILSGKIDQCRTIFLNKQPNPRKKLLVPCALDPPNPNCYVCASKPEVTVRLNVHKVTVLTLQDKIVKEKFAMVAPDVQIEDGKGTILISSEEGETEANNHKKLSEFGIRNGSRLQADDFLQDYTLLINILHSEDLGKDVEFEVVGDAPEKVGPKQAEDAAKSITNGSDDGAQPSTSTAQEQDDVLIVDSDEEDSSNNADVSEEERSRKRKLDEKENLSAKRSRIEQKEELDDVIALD
SUMO E1/E2, sequence (P63279 whole entry): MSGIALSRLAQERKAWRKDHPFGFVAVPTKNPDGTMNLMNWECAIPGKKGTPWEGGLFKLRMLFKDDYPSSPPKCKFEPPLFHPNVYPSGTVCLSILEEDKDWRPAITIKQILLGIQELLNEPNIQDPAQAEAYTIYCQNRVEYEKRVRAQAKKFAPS
Glucose-6-phosphate 1-dehydrogenase, sequence (P11413 whole entry): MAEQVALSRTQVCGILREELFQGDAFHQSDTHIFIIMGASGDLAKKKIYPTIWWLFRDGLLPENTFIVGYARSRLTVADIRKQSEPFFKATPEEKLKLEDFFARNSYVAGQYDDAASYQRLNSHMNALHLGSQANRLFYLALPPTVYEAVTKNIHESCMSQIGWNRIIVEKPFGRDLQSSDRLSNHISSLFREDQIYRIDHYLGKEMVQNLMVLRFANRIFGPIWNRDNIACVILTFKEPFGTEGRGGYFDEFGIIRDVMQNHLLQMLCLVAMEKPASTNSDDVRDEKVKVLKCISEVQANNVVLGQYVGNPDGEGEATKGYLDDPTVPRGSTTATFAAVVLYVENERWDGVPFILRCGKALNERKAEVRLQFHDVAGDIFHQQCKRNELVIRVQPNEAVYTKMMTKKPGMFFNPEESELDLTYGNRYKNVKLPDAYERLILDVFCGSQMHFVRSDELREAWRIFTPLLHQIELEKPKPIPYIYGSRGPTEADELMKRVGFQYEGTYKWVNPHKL
Intestinal-type alkaline phosphatase (Homo sapiens, UniProt P09923), sequence (P09923 whole entry): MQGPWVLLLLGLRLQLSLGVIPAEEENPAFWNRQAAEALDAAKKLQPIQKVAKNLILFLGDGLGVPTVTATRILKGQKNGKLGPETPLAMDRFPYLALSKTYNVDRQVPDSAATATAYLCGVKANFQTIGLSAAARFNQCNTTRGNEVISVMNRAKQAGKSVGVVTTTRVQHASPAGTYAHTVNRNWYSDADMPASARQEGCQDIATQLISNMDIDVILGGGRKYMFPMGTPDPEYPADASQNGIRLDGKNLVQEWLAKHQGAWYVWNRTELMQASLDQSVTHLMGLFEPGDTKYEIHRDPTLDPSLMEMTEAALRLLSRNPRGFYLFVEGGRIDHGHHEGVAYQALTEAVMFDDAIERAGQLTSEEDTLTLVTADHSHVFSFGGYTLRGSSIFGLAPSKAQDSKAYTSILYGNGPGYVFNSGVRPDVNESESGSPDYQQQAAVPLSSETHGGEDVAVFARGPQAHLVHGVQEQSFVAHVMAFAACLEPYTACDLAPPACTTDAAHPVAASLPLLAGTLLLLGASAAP

CC(=NOCc1nc2ccccc2c(=O)n1N=Cc1cc([N+](=O)[O-])ccc1O)c1ccccc1
IC50 (SUMO E1/E2): 27 µM (active)

O=C1NC(=S)NC(=O)C1=Cc1ccc(Br)s1
EC50 [1]: 61.6 µM (active)
IC50 [2]: > 12.1 µM (not active)
IC50 (Bcl-2-like protein 1): > 109 µM (not active)
EC50 [3]: 76.8 µM (active)
IC50 [4]: 36.4 µM (inactive)
CC50 (Vero): 21.4 µM (active)
AC50 [5]: 25.6 µM (active)
IC50 (Large T antigen): 64.5 µM (active)
EC50 [6]: 59.7 µM (active)

Cc1ccc(N2CCN(CCCCN3C(=O)C4CCCN4C3=O)CC2)cc1 (stereo not drawn)
IC50 [7]: > 79.4 µM (inactive)
IC50 [8]: > 79.4 µM (inactive)
IC50 [9]: > 79.4 µM (inactive)
